From paper PMC8562569 (Nature cancer, 2021)

Target: PIKfyve (Homo sapiens, UniProt Q9Y2I7)
Test: cellular thermal shift assay in VCaP cells, […], […] h
Assay type: cell-based

Chain of PIKfyve (Q9Y2I7 2-2098): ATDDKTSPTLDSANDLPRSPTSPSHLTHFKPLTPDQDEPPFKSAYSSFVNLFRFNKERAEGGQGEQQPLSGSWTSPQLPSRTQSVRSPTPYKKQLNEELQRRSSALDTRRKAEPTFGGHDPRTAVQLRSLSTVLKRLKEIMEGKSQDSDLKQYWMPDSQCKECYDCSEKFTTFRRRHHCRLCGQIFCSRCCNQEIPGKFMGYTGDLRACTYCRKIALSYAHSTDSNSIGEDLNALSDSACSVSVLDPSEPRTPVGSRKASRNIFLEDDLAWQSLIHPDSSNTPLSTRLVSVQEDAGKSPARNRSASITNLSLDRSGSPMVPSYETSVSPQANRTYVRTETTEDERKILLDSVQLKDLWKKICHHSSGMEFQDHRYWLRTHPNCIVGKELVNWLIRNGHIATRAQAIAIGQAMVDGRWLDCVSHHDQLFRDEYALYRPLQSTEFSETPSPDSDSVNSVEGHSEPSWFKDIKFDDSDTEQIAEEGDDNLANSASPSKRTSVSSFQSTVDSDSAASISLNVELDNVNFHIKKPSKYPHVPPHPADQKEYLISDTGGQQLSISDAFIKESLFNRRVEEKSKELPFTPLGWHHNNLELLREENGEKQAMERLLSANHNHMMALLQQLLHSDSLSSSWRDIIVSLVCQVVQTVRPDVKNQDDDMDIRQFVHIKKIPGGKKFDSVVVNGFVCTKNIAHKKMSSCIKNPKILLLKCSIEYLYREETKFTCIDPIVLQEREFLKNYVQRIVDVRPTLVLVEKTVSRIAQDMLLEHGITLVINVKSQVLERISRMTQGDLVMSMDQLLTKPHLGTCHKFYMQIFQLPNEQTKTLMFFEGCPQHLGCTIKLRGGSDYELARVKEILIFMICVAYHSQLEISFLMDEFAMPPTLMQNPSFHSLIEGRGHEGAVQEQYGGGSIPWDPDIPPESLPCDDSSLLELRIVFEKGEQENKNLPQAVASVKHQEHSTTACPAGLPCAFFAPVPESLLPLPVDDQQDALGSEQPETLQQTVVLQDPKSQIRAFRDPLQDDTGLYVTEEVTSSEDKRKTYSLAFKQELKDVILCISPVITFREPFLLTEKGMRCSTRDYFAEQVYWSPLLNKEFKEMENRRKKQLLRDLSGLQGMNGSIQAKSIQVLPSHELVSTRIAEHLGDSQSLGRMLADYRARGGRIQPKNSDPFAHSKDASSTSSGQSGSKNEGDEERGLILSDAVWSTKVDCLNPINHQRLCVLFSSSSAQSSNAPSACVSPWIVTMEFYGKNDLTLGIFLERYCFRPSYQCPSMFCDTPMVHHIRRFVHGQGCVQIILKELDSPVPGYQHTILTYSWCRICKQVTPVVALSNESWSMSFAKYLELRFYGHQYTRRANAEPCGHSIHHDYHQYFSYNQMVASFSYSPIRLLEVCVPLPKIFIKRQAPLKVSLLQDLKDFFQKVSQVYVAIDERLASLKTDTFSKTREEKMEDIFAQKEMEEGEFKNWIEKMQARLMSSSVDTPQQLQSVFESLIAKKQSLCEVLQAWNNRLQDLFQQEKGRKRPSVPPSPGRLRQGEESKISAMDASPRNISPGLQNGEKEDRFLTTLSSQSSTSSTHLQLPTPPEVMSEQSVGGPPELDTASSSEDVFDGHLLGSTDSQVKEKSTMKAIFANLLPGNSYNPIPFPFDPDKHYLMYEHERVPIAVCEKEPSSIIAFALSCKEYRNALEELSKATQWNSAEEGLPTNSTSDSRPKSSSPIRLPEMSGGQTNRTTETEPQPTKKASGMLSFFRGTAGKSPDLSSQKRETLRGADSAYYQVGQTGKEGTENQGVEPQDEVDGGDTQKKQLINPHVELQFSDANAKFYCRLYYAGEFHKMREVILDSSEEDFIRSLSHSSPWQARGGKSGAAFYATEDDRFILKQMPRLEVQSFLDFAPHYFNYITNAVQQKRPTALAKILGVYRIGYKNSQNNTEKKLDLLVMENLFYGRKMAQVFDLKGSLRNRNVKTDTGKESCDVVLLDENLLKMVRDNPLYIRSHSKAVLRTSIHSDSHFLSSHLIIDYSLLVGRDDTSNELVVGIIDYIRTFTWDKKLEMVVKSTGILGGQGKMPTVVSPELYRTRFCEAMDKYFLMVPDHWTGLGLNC

## Cc1cccc(/C=N/Nc2cc(N3CCOCC3)nc(OCCc3ccccn3)n2)c1 [apilimod]
  cellular thermal shift assay in VCaP cells, 1 μM, 2 h: cellular thermal shift assay in VCaP cells, with the known PIKfyve inhibitor apilimod serving as a positive control
